Read-outs that look alike come from different tables or passages of the source.
Tested on: 5637, SH-SY5Y, HMC-3, Hep G2, L929; HaCaT, CaCo-2, MRC-5, BJ cells
Assay: WST-1 viability assay, summary ranges over groups of cell lines
Assay type: cell-based
Protocol: Based on the novelty of the IMBcat compound, we aimed to evaluate its in vitro cytotoxicity in selected model cell lines as well as to determine the toxicity of the IBMcat enantiomers, since both the chemical structure and chirality of compounds could play a role in their bioactivity (Table 2). The cytotoxic profile of the IBMcat was determined by a WST-1 viability assay after 72-h treatment. For this purpose, cell lines derived from distinct tissues, often affected by NPSs, were chosen, i.e., cells of kidney, hepatic, neural, urinary, and intestinal origin as well as keratinocytes and primary fibroblasts (HEK 293T, Hep G2, HMC-3, SH-SY5Y, 5637, CaCo-2, HaCaT, MRC-5, and BJ, respectively). […]
In this study, the following cell lines were used: HEK 293T, Hep G2, HMC-3, SH-SY5Y, 5637, CaCo-2, HaCaT, MRC-5, BJ, and L929. […] The selected cell lines were chosen so that not only primary noncancerous cells are evaluated but also cells derived from tissues, which are the most often affected by novel synthetic drugs, i.e., kidney, liver, urinary bladder, and nervous tissue. […]
The cytotoxicity of IBMCat was evaluated in vitro by using a WST-1 viability assay (Sigma-Aldrich, Saint Louis, MO, USA) based on the transformation of a tetrazolium salt into colored formazan in metabolically active cells. […] After 72 h of additional incubation of the cells, their viability was determined by WST-1. […]

## CNC(C)C(=O)c1ccc(CC(C)C)cc1.Cl (centres unmarked) [IBMcat, 4-isobutylmethcathinone hydrochloride]
5637, SH-SY5Y, HMC-3 and Hep G2 cells, after 72 h, read-out: IC50 values (range over cell lines)
  IC50: 18 to 65 µM
HaCaT, CaCo-2, MRC-5 and BJ cells, 72 h, racemate and enantiomers, read-out: IC50 (range over cell lines)
  IC50: 329 to 749 µM

— article PMC9780888, “4-Isobutylmethcathinone—A Novel Synthetic Cathinone with High In Vitro Cytotoxicity and Strong Receptor Binding Preference of Enantiomers” (Pharmaceuticals, 2022)
